# Laboratory results as given in publication PMC6767909 (Journal of medicinal chemistry, 2019).
# Where two headings read alike, the source gives them in different places.
# Experiments:
# human GIVA cPLA2 = biological target: T1, human GIVA cPLA2 (Homo sapiens, UniProt P47712); test: lipidomics-based mixed micelle assay, GIVA cPLA2; type: biochemical; conditions: for GIVA cPLA2 XI(50): separated trans/cis diastereomers, lipidomics-based assay
# T1 sequence (P47712 1-749): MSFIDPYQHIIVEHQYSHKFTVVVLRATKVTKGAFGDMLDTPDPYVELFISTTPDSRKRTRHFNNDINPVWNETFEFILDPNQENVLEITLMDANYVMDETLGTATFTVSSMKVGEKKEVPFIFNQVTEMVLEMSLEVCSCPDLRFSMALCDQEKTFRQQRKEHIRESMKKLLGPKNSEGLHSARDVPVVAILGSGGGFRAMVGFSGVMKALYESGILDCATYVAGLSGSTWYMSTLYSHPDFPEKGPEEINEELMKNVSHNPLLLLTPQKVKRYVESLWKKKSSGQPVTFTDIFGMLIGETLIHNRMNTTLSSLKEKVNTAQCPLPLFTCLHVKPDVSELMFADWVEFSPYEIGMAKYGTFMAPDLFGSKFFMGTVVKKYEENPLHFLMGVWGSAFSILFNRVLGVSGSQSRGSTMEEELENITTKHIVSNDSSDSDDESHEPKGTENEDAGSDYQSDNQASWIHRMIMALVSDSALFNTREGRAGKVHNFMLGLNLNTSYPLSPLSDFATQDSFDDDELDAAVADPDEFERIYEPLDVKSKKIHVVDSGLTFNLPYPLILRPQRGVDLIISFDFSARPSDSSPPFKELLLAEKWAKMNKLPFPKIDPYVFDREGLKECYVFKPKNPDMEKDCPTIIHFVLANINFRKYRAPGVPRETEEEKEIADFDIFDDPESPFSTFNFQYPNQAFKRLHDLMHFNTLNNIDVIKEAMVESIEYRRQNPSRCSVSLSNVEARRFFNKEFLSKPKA
# [1] = biological target: T2, recombinant human GVIA iPLA2 (Homo sapiens, UniProt O60733); test: lipidomics-based mixed micelle assay, GVIA iPLA2; type: biochemical
# T2 sequence (O60733 1-806): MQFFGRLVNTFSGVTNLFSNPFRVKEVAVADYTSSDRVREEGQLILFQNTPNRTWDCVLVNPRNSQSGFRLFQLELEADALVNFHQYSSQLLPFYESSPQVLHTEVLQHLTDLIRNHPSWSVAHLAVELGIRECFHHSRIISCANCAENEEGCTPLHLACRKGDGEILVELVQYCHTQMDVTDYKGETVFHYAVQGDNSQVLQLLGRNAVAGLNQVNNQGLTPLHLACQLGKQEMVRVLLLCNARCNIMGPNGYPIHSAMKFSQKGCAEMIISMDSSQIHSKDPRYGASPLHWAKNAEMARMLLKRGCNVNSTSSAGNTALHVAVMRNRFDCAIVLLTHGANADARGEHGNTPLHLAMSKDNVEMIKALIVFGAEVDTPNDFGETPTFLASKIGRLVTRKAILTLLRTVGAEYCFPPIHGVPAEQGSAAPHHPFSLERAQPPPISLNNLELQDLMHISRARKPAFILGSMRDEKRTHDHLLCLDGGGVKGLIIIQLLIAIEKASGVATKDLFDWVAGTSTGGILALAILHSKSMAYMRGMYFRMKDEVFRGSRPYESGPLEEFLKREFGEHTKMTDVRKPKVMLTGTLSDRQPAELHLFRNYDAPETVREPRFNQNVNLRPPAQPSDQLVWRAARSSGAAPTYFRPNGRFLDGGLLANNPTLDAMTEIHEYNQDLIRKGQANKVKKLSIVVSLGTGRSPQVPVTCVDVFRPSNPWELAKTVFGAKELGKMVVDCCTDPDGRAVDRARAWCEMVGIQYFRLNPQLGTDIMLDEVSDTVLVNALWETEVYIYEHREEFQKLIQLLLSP
# INS-1 cells = type: cell-based
# [2] = biological target: T2, recombinant human GVIA iPLA2; conditions: cited from earlier work; for GVIA iPLA2 XI(50): radioactivity-based assay
# β-cell = conditions: cited from earlier work
structure (smiles),measurement,setting,value
"CCC[C@@H]1OC(=O)[C@@H]1CCCc1ccccc1 (racemic) [cis-9d, cis-(±)-3-(3-Phenylpropyl)-4-propyloxetan-2-one]",IC50,human GIVA cPLA2,950 nM
same,GIVA cPLA2 XI(50),human GIVA cPLA2,0.0019 mole fraction
"CCC[C@@H]1OC(=O)[C@@H]1CCCc1ccc(OC)cc1 (racemic) [cis-9f, cis-(±)-3-(3-(4-Methoxyphenyl)propyl)-4-propyloxetan-2-one]",IC50,human GIVA cPLA2,20 nM
same,times more potent for GIVA cPLA2 than for GVIA iPLA2,human GIVA cPLA2; GIVA cPLA2 over GVIA iPLA2,~1000 times
same,GIVA cPLA2 XI(50),human GIVA cPLA2,0.00004 mole fraction
same,IC50,[1],20000 nM
"CCC[C@@H]1OC(=O)[C@@H]1CCCCc1ccc2ccccc2c1 (racemic) [cis-9j, cis-(±)-3-(4-(Naphthalen-2-yl)butyl)-4-propyloxetan-2-one]",IC50,[1],1000 nM
"CCC[C@H]1OC(=O)[C@@H]1CCCc1ccccc1 (racemic) [trans-9d, trans-(±)-3-(3-Phenylpropyl)-4-propyloxetan-2-one]",IC50,[1],95 nM
"CCC[C@H]1OC(=O)[C@@H]1CCCc1ccc2ccccc2c1 (racemic) [trans-9e, trans-(±)-3-(3-(Naphthalen-2-yl)propyl)-4-propyloxetan-2-one]",IC50,[1],150 nM
"CCC[C@H]1OC(=O)[C@@H]1CCCc1ccc(OC)cc1 (racemic) [trans-9f, trans-(±)-3-(3-(4-Methoxyphenyl)propyl)-4-propyloxetan-2-one]",IC50,[1],95 nM
"CCC[C@H]1OC(=O)[C@@H]1CCCCc1ccccc1 (racemic) [trans-9k, trans-(±)-3-(4-Phenylbutyl)-4-propyloxetan-2-one]",GIVA cPLA2 XI(50),human GIVA cPLA2,0.042 mole fraction
same,inhibition (decrease) of cytokine-induced β-cell apoptosis,"INS-1 cells; 0.10 μM, co-treatment with IL-1β + IFNγ, 16 h",minimal and non-significant effect
same,"cytotoxicity on continuous exposure, compound alone","INS-1 cells; 0.10 or 1.0 μM, no cytokines",not cytotoxic
same,times more active against GVIA iPLA2 than GIVA cPLA2 (selectivity),[1]; GVIA iPLA2 over GIVA cPLA2,"22,000 times"
same,potency on GVIA iPLA2 relative to FKGK18,[1]; compared with fluoroketone FKGK18,a hundred times more potent
O=C(CCCCc1ccccc1)C(F)(F)C(F)(F)F [2a],GVIA iPLA2 XI(50),[2]; listed as FKGK11,0.0014 mole fraction
COc1ccc(CCCCC(=O)C(F)(F)C(F)(F)F)cc1 [2b],GVIA iPLA2 XI(50),[2]; listed as GK187,0.0001 mole fraction
O=C(CCCCc1ccc2ccccc2c1)C(F)(F)F [compound 3],inhibition of β-cell apoptosis,β-cell,able to inhibit β-cell apoptosis
same,times more potent for GVIA iPLA2 than for GIVA cPLA2,[2],195 times
same,times more potent for GVIA iPLA2 than for GV sPLA2,[2],> 455 times
COc1ccc(CCSCC(=O)c2noc(C(C)(C)C)n2)cc1 [compound 4],GVIA iPLA2 XI(50),[2],0.0057 mole fraction
